Values of other authors as cited in patent US20160106774A1, “LIQUID PHARMACEUTICAL COMPOSITION CONTAINING PIROXICAM AND HYALURONIC ACID FOR THE TREATMENT OF OSTEOARTHRITIS” (DONG-A ST CO., LTD, priority 2013, published 2016).

System: carrageenan-induced animal podedema model
Settings: coadministration of NSAID with sodium hyaluronate; piroxicam 4 mg/kg and sodium hyaluronate 4 mg/kg; foot pad

SMILES | anti-inflammatory effect of coadministration with sodium hyaluronate
O=C(O)Cc1ccccc1Nc1c(Cl)cccc1Cl [diclofenac] | additive or synergistic effects
COc1ccc2c(c1)c(CC(=O)O)c(C)n2C(=O)c1ccc(Cl)cc1 [indomethacin] | additive or synergistic effects
CC(C)Cc1ccc(C(C)C(=O)O)cc1 (stereo not shown) [ibuprofen] | additive or synergistic effects
CN1C(C(=O)Nc2ccccn2)=C(O)c2ccccc2S1(=O)=O [piroxicam] | weak
